Laboratory results published in patent US4954437A, “Cell encoding recombinant human erythropoietin” (Integrated Genetics, Inc., priority 1986, dated 1990).
Square brackets hold non-standard residues; d marks the D form. Peptide text beside a SMILES is read from it. * marks the point of attachment. Sta = CC(C)C[C@H](N)[C@@H](O)CC(=O)O; Isovaleryl = CC(C)CC(=O)*

Columns and labels:
[1] = test system: proteases that are active at PH5.0; experiment: Protease inhibitors preventing EPO degradation at pH5.0 in 10X concentrated EPO medium, assayed by RIA; assay type: biochemical
Procedure: (§1) The addition of a dye column to step 1 gives some additional purification and, more importantly, removes contaminating proteases from EPO and consequently allows higher EPO recoveries at the S-Sepharose Fast Flow step. The clarified media was loaded on a Blue Trisacryl-M column (Pharmacia) equilibrated with 10 mM NaPO4 pH6.0, 150 mM NaCl and eluted with a linear salt gradient of 0.15 to 2.5 M NaCl in 10 mM NaPO4 pH6.0 and then flow-dialyzed into 50 mM Na Acetate, pH5.0 containing 15mM NaCl. The recovery of EPO from the Blue Trisacryl column was almost complete and the recovery on the following S-Sepharose Fast Flow column was 86% compared to 60% in example 1. […] This degradation seems to be caused by proteases that are active at PH5.0. The improved yields in step 2 as illustrated in this example can be attributed to the separation of proteases from the EPO protein by the Blue Trisacryl column. (Other commercially available dyes can also be used.)
Protease inhibitors can also be added to the conditioned medium in order to improve EPO yields. Several commercially available protease inhibitors were tested to see if they could prevent EPO degradation at pH5.0. 10X concentrated (Step 1) EPO medium was diluted 1:10 in 50mM Na Acetate, pH5.0 and then incubated at 37° C. with or without protease inhibitors at a concentration of 5 micrograms/ml. […]

Polycythemic mouse = Polycythemic mouse assay (in vivo biological assay); conditions: for biological activity in in vivo assays: purified rEPO from CES9dog conditioned medium
Procedure: (§2) When the cells were confluent, the supernatants were assayed for EPO expression and the cells were counted and frozen. To test the reproducibility and stability of these cell lines, the 21 highest producing cell lines were thawed and rescreened for 24 hours expression levels on a per cell basis. The five highest producers (3CES and 2CEG transformants) were chosen and expanded into roller bottles to test for growth and production properties. Representative 24 hour culture fluids from cell lines CES9dog and CEG4d in T-75 flasks contained 600U/ml and 800U/ml of rEPO as measured by the ^3 H-thy uptake assay using human urinary EPO as a standard and 490 and 540U/ml when measured by the ^59 Fe incorporation assay into rat bone marrow cells in vitro (Goldwasser et al., 1975, Endocrinology 97:315.). These samples were also active in vivo in the Polycythemic mouse assay as described by Cotes et al., 1961, Nature 191:1065.

rat bone marrow cells = experiment: In vitro biological assays (3H-thy uptake assay, 59Fe incorporation into rat bone marrow cells); assay type: cell-based; conditions: purified rEPO from CES9dog conditioned medium
Procedure: Foci, representing BPV transformed C127 cells, were detectable 10-14 days after transfection. Supernatants from Plates containing transformants were assayed 17 days after transfection by the ^3 H-thy uptake assay (Krystal 1983, Exp. Hematol., 11/7, 649) and found to contain EPO. 21/2 to 3 weeks after transfection, foci were isolated by the cloning ring method and transferred to T-25 flasks. After the cells reached approximately 20% confluency, the supernatants were tested for EPO production by the ^3 H-thy uptake assay. A total of 76 cell lines (15 CEM, 35 CES and 26 CEG transformants) were transferred into T-75 flasks.
as §2, with “The five highest producers (3CES and 2CEG transformants) were chosen and expanded into roller bottles to test for growth and production properties.” left out, “These samples were also active in vivo in the Polycythemic mouse assay as described by Cotes et al., 1961, Nature 191:1065.” left out

[2] = Degradation of EPO incubated at 37° C. under mildly acidic conditions at pH5.0; assay type: physicochemical; conditions: 10X concentrated medium or partially purified step 2 material
Procedure: as §1

Compound | effect on EPO immunoactivity at pH5.0 ([1]; 5 micrograms/ml, 50mM Na Acetate pH5.0, 37° C., over 29 hours, RIA) | IC50 (the concentration at which 50% of the proteases are inhibited) ([1]; 10X concentrated medium, pH5.0, 37° C., 25 hours, RIA (FIG. 9)) | activity in vivo in the Polycythemic mouse assay (Polycythemic mouse; 24 hour culture fluids from cell lines CES9dog and CEG4d) | biological activity in in vivo assays (Polycythemic mouse) | biological activity in in vivo assays (Polycythemic mouse; listed as EPO) | biological activity in in vitro assays (rat bone marrow cells) | biological activity in in vitro assays (rat bone marrow cells; listed as EPO) | t1/2 of degradation [2]
CC(C)CC(=O)N[C@H](C(=O)N[C@H](C(=O)N[C@@H](CC(C)C)[C@@H](O)CC(=O)N[C@@H](C)C(=O)N[C@@H](CC(C)C)[C@@H](O)CC(=O)O)C(C)C)C(C)C [Pepstatin, pepstatin] (Isovaleryl-VV[Sta]A[Sta]-OH) | significant stabilizing effect | approximately 0.02 ug/ml | – | – | – | – | – | –
rEPO: recombinant human erythropoietin produced by BPV transformed mouse C127 cells, N- and O-glycosylated | – | – | active | high biological activity | high potency | high biological activity | high potency | approx. 4 h
